Values joined by “and” are separate entries in the source; they are usually repeats but may differ in a detail not shown here. Equal values may be shown once.
System: patients with blepharospasm
Assay: Observational prospective case series of 21 consecutive patients with blepharospasm treated with Latanoprost
Type: in vivo, human
Experimental: It is the inventor's unique discovery that latanoprost improves some forms of blepharospasm. Over a period of three years starting from 2000, 21 patients with various forms of blepharospasm were treated with latanoprost. In more than 75% of the cases observed, the symptoms of blepharospasm were much improved ranging from mild resolution to complete improvement.
Observational prospective case series of 21 consecutive patients comprising mostly Asian descent with blepharospasm were treated with Latanoprost for a mean follow-up period of 1.5 years. Assessment of therapy was made by symptomatic evaluation and clinical examination. Severity of patient's initial symptoms ranged from myokimia to blepharospasm with facial dystonia.
The patients were pooled from the Los Angeles County metropolitan area and the Pacific Rim and all of the patients are of Chinese descent. The patients were excluded if they had secondary causes of blepharospasm such as light sensitivity, lid hygiene (blepharitis), dry eyes, and emotional or physical psychological stressors.
Therapeutic intervention involved administration of one drop of Latanoprost in the affected eye at night. Adverse effects were assessed by the patient's subjective feedback and physician's examination. Outcome assessment was determined mainly by subjective reporting by the patient.
Table 1 illustrates the physician's grading scale, wherein grade I signified blepharospasm isolated just to the eyes; Grade II described blepharospasm with some form of facial dystonia; and Grade III described blepharospasm with facial dystonia extending to the neck region
Table 2 illustrates patient's subjective evaluation of improvement that subjective opinion of improvement is on a scale ranging from 0 to 10, where zero indicated no improvement and 10 indicated complete resolution.
Table 3 illustrates demographics and clinical data of the patients involved in the above clinical study. In Table 3, F represent female, M represent male, duration represents duration of treatment, OU represents blepharospasm in both eyes, OD represents blepharospasm in right eye only, and OS represents blepharospasm in left eye. Date start illustrates the date starting treatment of prostaglandin derivatives, improvement illustrates the time required for first noticeable improvement, while scale imp represents scale of improvement according to the subjective evaluation grading as shown in Table 2.

Compound: CC(C)OC(=O)CCC/C=C\C[C@@H]1[C@@H](CC[C@@H](O)CCc2ccccc2)[C@H](O)C[C@@H]1O [Latanoprost, isopropyl-(Z)-7[(1R,2R,3R,5S)3,5-dihydroxy-2-[(3R)-3-hydroxy-5-phenylpentyl]cyclopentyl]-5-heptenoate]
- patients who reported moderate to complete resolution of symptoms after treatment (21 consecutive patients, mean follow-up 1.5 years): over 75%
- cases in which symptoms of blepharospasm were much improved, ranging from mild resolution to complete improvement (21 patients with various forms of blepharospasm, three years starting from 2000): more than 75%
- change in spasm of eyelids and face (Case 1, 30 years history, right eye, 1.5 ug per day, after 3 weeks of treatment): considerable decrease in spasm of their eyelids and face
- patients who noted subjective improvement in their blepharospasm (after treatment, 21 patients): 19 of 21
- patients who reported no change (after treatment, 21 patients): 2 patients
- duration of treatment required before effects were seen (general statement on the series): approximately 2 months
- Improvement (time required for first noticeable improvement) (individual patient, one drop in the affected eye at night): 2 months (13×) and 1 months (6×)
- Scale imp (scale of improvement, patient's subjective evaluation grading) (individual patient, scale 0 to 10: 0 no improvement, 5 50% improvement, 10 complete resolution, one drop in the affected eye at night): 5 (6×) and 10 (2×) and 8 (6×) and 7 and 9 (3×) and 6 and 0 (2×)
- time at which noticeable improvements occurred after initiation of treatment (whole series of 21 patients): 1-2 months
- average amount of improvement (whole series, subjective scale 0 to 10): 6.95
